Experimental data as given in ChEMBL document CHEMBL1201862, “PubChem BioAssay data set” (2004).
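Interpolation was linear, between the two tested concentrations surrounding the appropriate level; five concentrations were tested over 48 hours in 96-well plates. The concentration for 50% growth inhibition is given as GI50.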 Activity calls are given as the source filed them. Rule as the data show it: active = GI50 up to about 1.1 µM and inactive = higher.

Experiments:
Experiment in all cases: NCI-60 cell line screen, 48 h
786-0 = tested on: 786-0
A498 = tested on: A498
A549 = tested on: A549
ACHN = tested on: ACHN
CAKI-1 = tested on: CAKI-1
CCRF-CEM = tested on: CCRF-CEM
COLO 205 = tested on: COLO 205
DLD-1 = tested on: DLD-1
DMS-114 = tested on: DMS-114
DMS-273 = tested on: DMS-273
EKVX = tested on: EKVX
HCC 2998 = tested on: HCC 2998
HCT-116 = tested on: HCT-116
HCT-15 = tested on: HCT-15
HL-60 = tested on: HL-60
HOP-18 = tested on: HOP-18
HOP-62 = tested on: HOP-62
HOP-92 = tested on: HOP-92
HT-29 = tested on: HT-29
IGROV-1 = tested on: IGROV-1
K562 = tested on: K562
KM-20L2 = tested on: KM-20L2
KM12 = tested on: KM12
LOX IMVI = tested on: LOX IMVI
LXFL 529 = tested on: LXFL 529
M14 = tested on: M14
M19-MEL = tested on: M19-MEL
MOLT-4 = tested on: MOLT-4
Malme-3M = tested on: Malme-3M
NCI-H226 = tested on: NCI-H226
NCI-H23 = tested on: NCI-H23
NCI-H460 = tested on: NCI-H460
OVCAR-3 = tested on: OVCAR-3
OVCAR-4 = tested on: OVCAR-4
OVCAR-5 = tested on: OVCAR-5
OVCAR-8 = tested on: OVCAR-8
RPMI-8226 = tested on: RPMI-8226
RXF 393 = tested on: RXF 393
RXF 631 = tested on: RXF 631
SF-268 = tested on: SF-268
SF-295 = tested on: SF-295
SF-539 = tested on: SF-539
SK-MEL-28 = tested on: SK-MEL-28
SK-MEL-2 = tested on: SK-MEL-2
SK-MEL-5 = tested on: SK-MEL-5
SK-OV-3 = tested on: SK-OV-3
SN12C = tested on: SN12C
SNB-75 = tested on: SNB-75
SNB-78 = tested on: SNB-78
SR = tested on: SR
SW-620 = tested on: SW-620
TK-10 = tested on: TK-10
U-251 = tested on: U-251
UACC-257 = tested on: UACC-257
UACC-62 = tested on: UACC-62
UO-31 = tested on: UO-31
XF498 = tested on: XF498
SNB-19 = tested on: SNB-19

Compound: C/C(CCc1ccccc1)=N\NC(N)=S
- GI50 (786-0): > 100 µM (inactive)
- GI50 (A498): > 100 µM (inactive)
- GI50 (A549): > 100 µM (inactive)
- GI50 (ACHN): > 100 µM (inactive)
- GI50 (CAKI-1): > 100 µM (inactive)
- GI50 (CCRF-CEM): 75.5 µM (inactive)
- GI50 (COLO 205): > 100 µM (inactive)
- GI50 (DLD-1): > 100 µM (inactive)
- GI50 (DMS-114): 39 µM (inactive)
- GI50 (DMS-273): > 100 µM (inactive)
- GI50 (EKVX): 72.4 µM (inactive)
- GI50 (HCC 2998): > 100 µM (inactive)
- GI50 (HCT-116): > 100 µM (inactive)
- GI50 (HCT-15): > 100 µM
- GI50 (HL-60): > 100 µM (inactive)
- GI50 (HOP-18): > 100 µM (inactive)
- GI50 (HOP-62): > 100 µM (inactive)
- GI50 (HOP-92): > 100 µM (inactive)
- GI50 (HT-29): 27.8 µM (inactive)
- GI50 (IGROV-1): > 100 µM (inactive)
- GI50 (K562): > 100 µM (inactive)
- GI50 (KM-20L2): > 100 µM (inactive)
- GI50 (KM12): > 100 µM (inactive)
- GI50 (LOX IMVI): > 100 µM (inactive)
- GI50 (LXFL 529): 43 µM (inactive)
- GI50 (M14): > 100 µM (inactive)
- GI50 (M19-MEL): 74.8 µM (inactive)
- GI50 (MOLT-4): 72.8 µM (inactive)
- GI50 (Malme-3M): > 100 µM (inactive)
- GI50 (NCI-H226): > 100 µM (inactive)
- GI50 (NCI-H23): > 100 µM (inactive)
- GI50 (NCI-H460): > 100 µM (inactive)
- GI50 (OVCAR-3): > 100 µM (inactive)
- GI50 (OVCAR-4): > 100 µM (inactive)
- GI50 (OVCAR-5): > 100 µM (inactive)
- GI50 (OVCAR-8): > 100 µM (inactive)
- GI50 (RPMI-8226): 27.3 µM (inactive)
- GI50 (RXF 393): 42.3 µM (inactive)
- GI50 (RXF 631): > 100 µM (inactive)
- GI50 (SF-268): > 100 µM (inactive)
- GI50 (SF-295): > 100 µM (inactive)
- GI50 (SF-539): 37.2 µM (inactive)
- GI50 (SK-MEL-28): > 100 µM (inactive)
- GI50 (SK-MEL-2): > 100 µM (inactive)
- GI50 (SK-MEL-5): 95.3 µM (inactive)
- GI50 (SK-OV-3): > 100 µM (inactive)
- GI50 (SN12C): > 100 µM (inactive)
- GI50 (SNB-75): 76.4 µM (inactive)
- GI50 (SNB-78): > 100 µM (inactive)
- GI50 (SR): 75.2 µM (inactive)
- GI50 (SW-620): > 100 µM (inactive)
- GI50 (TK-10): > 100 µM (inactive)
- GI50 (U-251): > 100 µM (inactive)
- GI50 (UACC-257): > 100 µM (inactive)
- GI50 (UACC-62): > 100 µM (inactive)
- GI50 (UO-31): > 100 µM (inactive)
- GI50 (XF498): 43.4 µM (inactive)

Compound: COc1ccccc1/C=C1\CCC(CCN2CCOCC2)C1=O (configuration not stated)
- GI50 (786-0): > 100 µM (inactive)
- GI50 (A498): > 100 µM (inactive)
- GI50 (A549): > 100 µM (inactive)
- GI50 (ACHN): 75.2 µM (inactive)
- GI50 (CAKI-1): > 100 µM (inactive)
- GI50 (CCRF-CEM): 38.7 µM (inactive)
- GI50 (DLD-1): > 100 µM (inactive)
- GI50 (DMS-114): 42 µM (inactive)
- GI50 (DMS-273): > 100 µM (inactive)
- GI50 (EKVX): > 100 µM (inactive)
- GI50 (HCC 2998): 66.1 µM (inactive)
- GI50 (HCT-116): 70.8 µM (inactive)
- GI50 (HCT-15): 91.8 µM
- GI50 (HL-60): 31.5 µM (inactive)
- GI50 (HOP-18): > 100 µM (inactive)
- GI50 (HOP-62): > 100 µM (inactive)
- GI50 (HOP-92): > 100 µM (inactive)
- GI50 (HT-29): 50.1 µM (inactive)
- GI50 (IGROV-1): > 100 µM (inactive)
- GI50 (K562): 41.1 µM (inactive)
- GI50 (KM-20L2): 75 µM (inactive)
- GI50 (KM12): > 100 µM (inactive)
- GI50 (LOX IMVI): 63.2 µM (inactive)
- GI50 (LXFL 529): > 100 µM (inactive)
- GI50 (M14): > 100 µM (inactive)
- GI50 (M19-MEL): > 100 µM (inactive)
- GI50 (MOLT-4): 48.1 µM (inactive)
- GI50 (Malme-3M): > 100 µM (inactive)
- GI50 (NCI-H226): > 100 µM (inactive)
- GI50 (NCI-H23): > 100 µM (inactive)
- GI50 (NCI-H460): 90.8 µM (inactive)
- GI50 (OVCAR-3): > 100 µM (inactive)
- GI50 (OVCAR-4): 37.8 µM (inactive)
- GI50 (OVCAR-5): > 100 µM (inactive)
- GI50 (OVCAR-8): > 100 µM (inactive)
- GI50 (RPMI-8226): 34 µM (inactive)
- GI50 (RXF 393): 59.8 µM (inactive)
- GI50 (RXF 631): 92.7 µM (inactive)
- GI50 (SF-268): > 100 µM (inactive)
- GI50 (SF-295): > 100 µM (inactive)
- GI50 (SF-539): > 100 µM (inactive)
- GI50 (SK-MEL-28): > 100 µM (inactive)
- GI50 (SK-MEL-2): > 100 µM (inactive)
- GI50 (SK-MEL-5): 68.1 µM (inactive)
- GI50 (SN12C): > 100 µM (inactive)
- GI50 (SNB-19): > 100 µM (inactive)
- GI50 (SNB-75): 49 µM (inactive)
- GI50 (SNB-78): > 100 µM (inactive)
- GI50 (SR): > 100 µM (inactive)
- GI50 (SW-620): > 100 µM (inactive)
- GI50 (TK-10): 93.1 µM (inactive)
- GI50 (UACC-257): > 100 µM (inactive)
- GI50 (UACC-62): > 100 µM (inactive)
- GI50 (UO-31): 90.4 µM (inactive)
- GI50 (XF498): > 100 µM (inactive)
